According to patent publication US20190315806A1, “POLYMYXIN DERIVATIVE, PREPARATION METHOD AND APPLICATION THEREOF” (priority 2016, published 2019):
In brackets after ≈: the same amount, converted by molar mass. Where a SMILES comes first, the peptide text is derived from it. Bridges are numbered along the chain shown (N, C = ends). [ ]: non-standard residue; d: D form. The star is where a group is joined. dPhe(4-CN) = N#Cc1ccc(C[C@@H](N)C(=O)O)cc1; Heptanoyl(6-Me) = CC(C)CCCCC(=O)*; X2 = CC[C@H](C)CCCCC(=O)*; dDab = NCC[C@@H](N)C(=O)O; Octanoyl = CCCCCCCC(=O)*; Dab = NCC[C@H](N)C(=O)O; X9 = CCCCCCC(=O)CC(=O)*; X1 = CCCCCC(=O)CC(=O)*; X3 = CCCCC(=O)CC(=O)*

Columns and labels:
Format in all cases: cell-based
[1] = test system: Acinetobacter baumannii ATCC 19606; conditions: ATCC 19606
Method in brief: (§1)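 Twofold agar-dilution MIC (CLSI), 0.03–128 μg/mL final; 10^4 CFU/dot spotted; 35° C., 18–24 h; no-growth endpoint.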

[2] = test system: Escherichia coli ATCC 25922; conditions: ATCC 25922
Method in brief: as §1

[3] = test system: Pseudomonas aeruginosa ATCC 27853; conditions: ATCC 27853
Method in brief: as §1

[4] = test system: Staphylococcus epidermidis ATCC 12228; conditions: ATCC 12228
Method in brief: as §1

[5] = test system: Klebsiella pneumoniae ATCC BAA-2146 (NDM-1); assay: Antibacterial activity, MIC by dish double dilution method; conditions: ATCC BAA-2146
Method in brief: as §1

[6] = Nephrotoxicity test, renal cytotoxicity by MTT method; conditions: African green monkey
Experimental: African green monkey kidney cells (Vero cells) were cultured in MEM medium (Hyclone), 10% fetal calf serum (Invitrogen) was added before use, cultured at 37° C. under 5% CO2.
Experiment was carried out using MTT method. After digestion, cells in logarithmic growth phase were counted, then the cells were inoculated in a 96-well culture plate. After incubation for 24 h to be adherent, cells were treated with a concentration gradient of a compound of the invention (e.g., a compound prepared in the Embodiments) and the controls. After 72 h, the culture solution was removed, 100 uL of MTT reagent at a concentration of 0.5 mg/ml was added, the medium was removed after incubating for 3 hours in a 37° C. incubator. Add 150 μL DMSO solvent to each well, mix for 3 min, after which the absorbance at 570 nm (A) was measured with a microplate reader.
Cell viability %=(Adosed cell−Abackground)/(Acontrol cell−Abackground)×100%. The average value of 3 parallel wells was taken for each detection point, and the inhibition curve was drawn to calculate the IC50 value.
The African green monkey kidney cells (Vero cells) used in the experiment were from the Cell Resource Center of the Institute of Basic Medicine, Chinese Academy of Medical Sciences.

Compound | MIC A. baumannii ATCC 19606 [1] [µg/mL] | MIC E. coli ATCC 25922 [2] [µg/mL] | MIC P. aeruginosa ATCC 27853 [3] [µg/mL] | MIC S. epidermidis ATCC 12228 [4] [µg/mL] | MIC K. pneumoniae ATCC BAA-2146 (NDM-1) [5] [µg/mL] | IC50 at 72 h [6] [µg/mL]
CC[C@H](C)CCCCC(=O)N[C@@H](CCN)C(=O)N[C@H](C(=O)N[C@@H](CCN)C(=O)N[C@H]1CCNC(=O)[C@H]([C@@H](C)O)NC(=O)[C@H](CCN)NC(=O)[C@H](CCN)NC(=O)[C@H]([C@@H](C)CC)NC(=O)[C@@H](Cc2ccccc2)NC(=O)[C@H](CCN)NC1=O)[C@@H](C)O [Compound 47, (S)-6-methyloctanoyl-Dab-Thr-Dab-ring(4-10)[Dab-Dab-D-Phe-Ile-Dab-Dab-Thr]] (X2-[Dab]T[Dab][Dab][Dab][dF]I[Dab][Dab]T; lactam 4-C) | 1 (≈ 0.831 µM) | 1 (≈ 0.831 µM) | 2 (≈ 1.66 µM) | 128 (≈ 106 µM) | 1 (≈ 0.831 µM) | 74.7 ± 6.13 (≈ 62.1 µM)
CC[C@H](C)CCCCC(=O)N[C@@H](CCN)C(=O)N[C@H](C(=O)N[C@@H](CCN)C(=O)N[C@H]1CCNC(=O)[C@H]([C@@H](C)O)NC(=O)[C@H](CCN)NC(=O)[C@H](CCN)NC(=O)[C@H](CC(C)C)NC(=O)[C@@H](Cc2ccc(C#N)cc2)NC(=O)[C@H](CCN)NC1=O)[C@@H](C)O [Compound 13, (S)-6-methyloctanoyl-Dab-Thr-Dab-ring(4-10)[Dab-Dab-D-Phe(4-CN)-Lue-Dab-Dab-Thr]] (X2-[Dab]T[Dab][Dab][Dab][dPhe(4-CN)]L[Dab][Dab]T; lactam 4-C) | 0.25 (≈ 0.203 µM) | 0.5 (≈ 0.407 µM) | 2 (≈ 1.63 µM) | 16 (≈ 13 µM) | 1 (≈ 0.814 µM) | 186 ± 11.3 (≈ 151 µM)
CCCCCC(=O)CC(=O)N[C@@H](CCN)C(=O)N[C@H](C(=O)N[C@@H](CCN)C(=O)N[C@H]1CCNC(=O)[C@H]([C@@H](C)O)NC(=O)[C@H](CCN)NC(=O)[C@H](CCN)NC(=O)[C@H](CC(C)C)NC(=O)[C@@H](Cc2ccccc2)NC(=O)[C@H](CCN)NC1=O)[C@@H](C)O [Compound 5, 3-oxooctanoyl-Dab-Thr-Dab-ring(4-10)[Dab-Dab-D-Phe-Lue-Dab-Dab-Thr]] (X1-[Dab]T[Dab][Dab][Dab][dF]L[Dab][Dab]T; lactam 4-C) | 2 (≈ 1.66 µM) | 0.5 (≈ 0.415 µM) | 1 (≈ 0.831 µM) | 32 (≈ 26.6 µM) | 0.5 (≈ 0.415 µM) | 93.7 ± 7.38 (≈ 77.9 µM)
CC[C@H](C)CCCCC(=O)N[C@@H](CCN)C(=O)N[C@H](C(=O)N[C@H](CCN)C(=O)N[C@H]1CCNC(=O)[C@H]([C@@H](C)O)NC(=O)[C@H](CCN)NC(=O)[C@H](CCN)NC(=O)[C@H]([C@@H](C)O)NC(=O)[C@@H](CC(C)C)NC(=O)[C@H](CCN)NC1=O)[C@@H](C)O [Compound 30, (S)-6-methyloctanoyl-Dab-Thr-D-Dab-ring(4-10)[Dab-Dab-D-Leu-Thr-Dab-Dab-Thr]] (X2-[Dab]T[dDab][Dab][Dab][dL]T[Dab][Dab]T; lactam 4-C) | 1 (≈ 0.864 µM) | 0.5 (≈ 0.432 µM) | 1 (≈ 0.864 µM) | >128 | 1 (≈ 0.864 µM) | 145 ± 12.1 (≈ 125 µM)
CCCCC(=O)CC(=O)N[C@@H](CCN)C(=O)N[C@H](C(=O)N[C@@H](CCN)C(=O)N[C@H]1CCNC(=O)[C@H]([C@@H](C)O)NC(=O)[C@H](CCN)NC(=O)[C@H](CCN)NC(=O)[C@H](CC(C)C)NC(=O)[C@@H](Cc2ccccc2)NC(=O)[C@H](CCN)NC1=O)[C@@H](C)O [Compound 4, 3-oxoheptanoyl-Dab-Thr-Dab-ring(4-10)[Dab-Dab-D-Phe-Lue-Dab-Dab-Thr]] (X3-[Dab]T[Dab][Dab][Dab][dF]L[Dab][Dab]T; lactam 4-C) | 2 (≈ 1.68 µM) | 0.5 (≈ 0.42 µM) | 2 (≈ 1.68 µM) | 128 (≈ 108 µM) | 2 (≈ 1.68 µM) | 110 ± 9.08 (≈ 92.2 µM)
CCCCCCCC(=O)N[C@@H](CCN)C(=O)N[C@H](C(=O)N[C@@H](CCN)C(=O)N[C@H]1CCNC(=O)[C@H]([C@@H](C)O)NC(=O)[C@H](CCN)NC(=O)[C@H](CCN)NC(=O)[C@H](CC(C)C)NC(=O)[C@@H](Cc2ccccc2)NC(=O)[C@H](CCN)NC1=O)[C@@H](C)O [Compound 44, octanoyl-Dab-Thr-Dab-ring(4-10)[Dab-Dab-D-Phe-Leu-Dab-Dab-Thr]] (Octanoyl-[Dab]T[Dab][Dab][Dab][dF]L[Dab][Dab]T; lactam 4-C) | 0.5 (≈ 0.42 µM) | 0.5 (≈ 0.42 µM) | 1 (≈ 0.841 µM) | 32 (≈ 26.9 µM) | 1 (≈ 0.841 µM) | 86.4 ± 8.31 (≈ 72.6 µM)
CCCCCCC(=O)CC(=O)N[C@@H](CCN)C(=O)N[C@H](C(=O)N[C@@H](CCN)C(=O)N[C@H]1CCNC(=O)[C@H]([C@@H](C)O)NC(=O)[C@H](CCN)NC(=O)[C@H](CCN)NC(=O)[C@H](CC(C)C)NC(=O)[C@@H](Cc2ccccc2)NC(=O)[C@H](CCN)NC1=O)[C@@H](C)O [Compound 6, 3-oxononanoyl-Dab-Thr-Dab-ring(4-10)[Dab-Dab-D-Phe-Lue-Dab-Dab-Thr]] (X9-[Dab]T[Dab][Dab][Dab][dF]L[Dab][Dab]T; lactam 4-C) | 2 (≈ 1.64 µM) | 1 (≈ 0.821 µM) | 2 (≈ 1.64 µM) | 16 (≈ 13.1 µM) | 1 (≈ 0.821 µM) | –

Now from value to compound, other results behind:

MIC A. baumannii ATCC 19606 [1] [µg/mL] | MIC E. coli ATCC 25922 [2] [µg/mL] | MIC P. aeruginosa ATCC 27853 [3] [µg/mL] | MIC S. epidermidis ATCC 12228 [4] [µg/mL] | MIC K. pneumoniae ATCC BAA-2146 (NDM-1) [5] [µg/mL] | Compound | IC50 at 72 h [6] [µg/mL]
4 (≈ 3.33 µM) | 4 (≈ 3.33 µM) | 4 (≈ 3.33 µM) | 16 (≈ 13.3 µM) | 4 (≈ 3.33 µM) | CC(C)CCCCC(=O)N[C@@H](CCN)C(=O)N[C@H](C(=O)N[C@@H](CCN)C(=O)N[C@H]1CCNC(=O)[C@H](CC(C)C)NC(=O)[C@H](CCN)NC(=O)[C@H](CCN)NC(=O)[C@H](CC(C)C)NC(=O)[C@@H](Cc2ccccc2)NC(=O)[C@H](CCN)NC1=O)[C@@H](C)O [Compound 128, 6-methylheptanoyl-Dab-Thr-Dab-ring(4-10)[Dab-Dab-D-Phe-Lue-Dab-Dab-Lue]] ({Heptanoyl(6-Me)}-[Dab]T[Dab][Dab][Dab][dF]L[Dab][Dab]L; lactam 4-C) | 30.1 ± 2.59 (≈ 25 µM)
1 (≈ 0.855 µM) | 1 (≈ 0.855 µM) | 2 (≈ 1.71 µM) | 128 (≈ 109 µM) | 1 (≈ 0.855 µM) | CC[C@H](C)CCCCC(=O)N[C@@H](CCN)C(=O)N[C@H](C(=O)N[C@@H](CCN)C(=O)N[C@H]1CCNC(=O)[C@H]([C@@H](C)O)NC(=O)[C@H](CCN)NC(=O)[C@H](CCN)NC(=O)[C@H]([C@@H](C)CC)NC(=O)[C@@H](CC(C)C)NC(=O)[C@H](CCN)NC1=O)[C@@H](C)O [Compound 71, (S)-6-methyloctanoyl-Dab-Thr-Dab-ring(4-10)[Dab-Dab-D-Leu-Ile-Dab-Dab-Thr]] (X2-[Dab]T[Dab][Dab][Dab][dL]I[Dab][Dab]T; lactam 4-C) | 176 ± 14.7 (≈ 151 µM)
0.25 (≈ 0.215 µM) | 0.5 (≈ 0.429 µM) | 2 (≈ 1.72 µM) | >128 | 0.5 (≈ 0.429 µM) | CCCCCCCC(=O)N[C@@H](CCN)C(=O)N[C@H](C(=O)N[C@H](CO)C(=O)N[C@H]1CCNC(=O)[C@H]([C@@H](C)O)NC(=O)[C@H](CCN)NC(=O)[C@H](CCN)NC(=O)[C@H]([C@@H](C)O)NC(=O)[C@@H](Cc2ccccc2)NC(=O)[C@H](CCN)NC1=O)[C@@H](C)O [Compound 117, octanoyl-Dab-Thr-D-Ser-ring(4-10)[Dab-Dab-D-Phe-Thr-Dab-Dab-Thr]] (Octanoyl-[Dab]T[dS][Dab][Dab][dF]T[Dab][Dab]T; lactam 4-C) | –
4 (≈ 3.33 µM) | 4 (≈ 3.33 µM) | 4 (≈ 3.33 µM) | 8 (≈ 6.66 µM) | 4 (≈ 3.33 µM) | CCCCCCCC(=O)N[C@@H](CCN)C(=O)N[C@H](C(=O)N[C@@H](CCN)C(=O)N[C@H]1CCNC(=O)[C@H](CC(C)C)NC(=O)[C@H](CCN)NC(=O)[C@H](CCN)NC(=O)[C@H](CC(C)C)NC(=O)[C@@H](Cc2ccccc2)NC(=O)[C@H](CCN)NC1=O)[C@@H](C)O [Compound 129, octanoyl-Dab-Thr-Dab-ring(4-10)[Dab-Dab-D-Phe-Lue-Dab-Dab-Lue]] (Octanoyl-[Dab]T[Dab][Dab][Dab][dF]L[Dab][Dab]L; lactam 4-C) | –
